# Data as given in patent US20090018176A1, “FUNGICIDE COMPOSITION COMPRISING AN ARYLAMIDINE DERIVATIVE AND TWO KNOWN FUNGICIDE COMPOUNDS” (Bayer CropScience AG, priority 2005, published 2009).
# How the values were obtained:
# Pyrenophora teres = experiment: In vivo curative test on Pyrenophora teres (barley); conditions: 50 g/ha of each active compound, evaluation 12 days after inoculation, 0% = control, 100% = no infection
# Experimental: In Vivo Curative Test on Pyrenophora Teres (Barley) [table] To produce a suitable preparation of active compound, 1 part by weight of active compound or active compound combination is mixed with the stated amounts of solvent and emulsifier, and the concentrate is diluted with water to the desired concentration. To test for curative activity, young plants are sprayed with a conidia suspension of Pyrenophora teres. The plants remain in an incubation cabinet at 20° C. and 100% relative atmospheric humidity for 48 hours. The plants are then sprayed with the preparation of active compound at the stated application rate. The plants are placed in a greenhouse at a temperature of about 20° C. and a relative atmospheric humidity of about 80%. Evaluation is carried out 12 days after the inoculation. 0% means an efficacy which corresponds to that of the control, whereas an efficacy of 100% means that no infection is observed.
# Puccinia recondita = experiment: In vivo preventive test on Puccinia recondita f. sp. tritici (wheat brown rust); conditions: 50 g/ha of each active compound, evaluation 12 days after inoculation, 0% = control, 100% = no infection
# Experimental: In Vivo Preventive Test on Puccinia Recondite f. Sp. Tritici (Wheat Brown Rust) [table] To produce a suitable preparation of active compound, 1 part by weight of active compound or active compound combination is mixed with the stated amounts of solvent and emulsifier, and the concentrate is diluted with water to the desired concentration. To test for preventive activity, young plants are […] at the stated rate of application. The plants remain for 24 hours in an incubation cabinet at 20° C. and a relative atmospheric humidity of 100%. The plants are placed in a greenhouse at a temperature of approximately 20° C. and a relative atmospheric humidity of approximately 80% to promote the development of rust pustules. Evaluation is carried out 12 days after the inoculation. 0% means an efficacy which corresponds to that of the control, whereas an efficacy of 100% means that no infection is observed. […] Compound 1 according to the invention is N-ethyl-N-methyl-N′-[4-(3-t-butyl-4-chlorphenoxy)-2,5 xylyl]-formamidine.
SMILES,Experimental efficacy (%) (Pyrenophora teres),Experimental efficacy (%) (Puccinia recondita)
"CCN(C)C=Nc1cc(C)c(Oc2ccc(Cl)c(C(C)(C)C)c2)cc1C [compound 1, N-ethyl-N-methyl-N′-[4-(3-t-butyl-4-chlorphenoxy)-2,5 xylyl]-formamidine]",0%,22%
OC(Cc1ccccc1Cl)(Cn1nc[nH]c1=S)C1(Cl)CC1 (stereo not drawn) [prothioconazole],0%,–
"CCCN(CC)CC1COC2(CCC(C(C)(C)C)CC2)O1 (stereo not drawn) [spriroxamine, spiroxamine]",50%,0%
CC(C)(C)C(O)(CCc1ccc(Cl)cc1)Cn1cncn1 (stereo not drawn) [tebuconazole],–,78%
